Results taken from PubChem BioAssay (NCI).
“And” between values parts separate entries of the source, which are not always exact repeats. Equal entries are not always repeated.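 Results reflect a 48-hour exposure of cells in 96-well plates to compound at five concentrations. Here, GI50 denotes the concentration required for 50% inhibition of growth. TGI: concentration producing complete growth inhibition.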

Tests used:
Test in all cases: inhibition of tumour cell growth, NCI panel, 48 h
[1] = test system: HOP-62 NSCLC
[2] = test system: SK-MEL-28 melanoma
[3] = test system: IGROV1 ovarian
[4] = test system: PC-3 prostate
[5] = test system: MDA-MB-231 breast
[6] = test system: CAKI-1 renal
[7] = test system: SNB-75 CNS
[8] = test system: LOX IMVI melanoma
[9] = test system: NCI-H226 lung
[10] = test system: T-47D breast

SMILES | GI50 [1] [µM] | TGI [1] | GI50 [2] [µM] | TGI [2] | GI50 [3] [µM] | TGI [3] | GI50 [4] [µM] | TGI [4] | GI50 [5] [µM] | TGI [5] | GI50 [6] [µM] | TGI [6] | GI50 [7] [µM] | TGI [7] | GI50 [8] [µM] | TGI [8] | GI50 [9] [µM] | TGI [9] | GI50 [10] [µM] | TGI [10]
CC1CN1CC(O)C(O)CN1CC1C (centres undefined) | 2.89 | > 71.9 µM | 17.5 | 97.4 µM | 4.09 | 42.2 µM | 12.5 | > 78.4 µM | 13.9 | 45.3 µM | 0.229 | 4.54 µM | 4.08 | > 63 µM | 0.814 | 11.4 µM | 5.23 | 50.1 µM | 2.87 | > 71.4 µM
O=C(N/N=C/c1cccc(O)c1O)c1ccccc1 | 1.52 | > 100 µM | 1.24 | > 100 µM | 3.49 | > 100 µM | 0.725 | > 100 µM | 0.495 | > 100 µM | 0.519 | 16.5 µM | 4.66 | 85.6 µM | 0.511 | > 100 µM | 3.22 | > 30.2 µM | 2.65 | > 100 µM
CC(=O)OC1CC(O)C23COC(O)C1(C)C2CC(O)C1(C)C3C(=O)C(O)C2(C)C(c3ccoc3)CC3OC321 (centres undefined) | 0.685 | > 100 µM | > 100 | > 100 µM | 0.377 | > 100 µM | 0.0114 | > 100 µM | > 28.7 | > 100 µM | 2.97 | > 100 µM | < 0.0397 | > 100 µM | < 0.01 | 12.5 µM | < 0.0188 | 18.4 µM | 0.151 | > 100 µM
CCCCCCCC(CC(=O)NC(CO)C(=O)NC(CO)CC(C)C)OC(=O)CC(CCCCCCC)OC(=O)CC(CCCCCCC)OC1OC(C)C(O)C(OC2OC(C)C(O)C(OC(C)=O)C2O)C1O (centres undefined) | – | 24.8 µM | – | 24.6 µM | – | 24.8 µM | – | 20.6 µM | – | 23.4 µM | – | 30.2 µM | – | 19.1 µM | – | – | – | 35.1 µM | – | 26.8 µM
O=C1c2ccccc2-c2c1c1ccccc1c(=O)n2Cc1ccccc1 | – | > 100 µM | – | > 100 µM | – | > 100 µM | – | > 100 µM | – | > 100 µM | – | > 100 µM | – | > 100 µM | – | > 100 µM | – | > 100 µM | – | > 100 µM
COc1ccc2c(c1)C(=O)c1c-2n(CCCn2ccnc2)c(=O)c2ccccc12 | 0.137 | 0.781 µM | 2.08 | > 57.4 µM | 0.204 | 2.55 µM | 0.765 | > 100 µM | 3.79 | > 79.1 µM | 0.211 | 1.34 µM | 0.843 | > 22.4 µM | 0.179 | 0.835 µM | 1.12 | 5.58 µM | 0.399 | 5.68 µM
CCOC(=O)c1c(CN2CCN(c3ccccc3)CC2)n(-c2ccccc2)c2cc(Br)c(O)cc12 | 17.2 | 33.4 µM | 16.6 | 42.1 µM | – | – | 3.21 | 13.3 µM | 15.7 | 33.1 µM | 15.3 | 36.9 µM | 17.7 | 90.5 µM | 3.1 | 11.1 µM | 15.4 | 30.9 µM | 7.59 | 37.9 µM
CCN1C(=O)CNc2ncc(-c3ccc(-c4ncn[nH]4)nc3C)nc21 | 0.14 | 2.46 µM | 0.115 | 1.44 µM | 0.045 | 0.606 µM | 0.0706 | 1.97 µM | 0.127 | 3.33 µM | 0.0441 | 0.576 µM | 0.0369 | 0.321 µM | 0.205 | 2.47 µM | 0.128 | 6.44 µM | 0.0169 | 0.185 µM
O=C(CCl)Nc1ccc(Cl)cc1 | 2.01 | 3.91 µM | 9.31 | 22.1 µM | 2.11 | 5.04 µM | 7.36 | 23.7 µM | 5.24 | 25.9 µM | 1.59 | 3.31 µM | 7.43 | 21.1 µM | 1.56 | 4.23 µM | 4.17 | 15.7 µM | 3.8 | 15.6 µM
O=C1NC(=O)c2ccc([N+](=O)[O-])c3cccc1c23 | – | 49.2 µM | – | 37.8 µM | – | 31 µM | – | 32 µM | – | 34.5 µM | – | 39 µM | – | 85.9 µM | – | – | – | 43.6 µM | – | 44 µM
NCCCC[C@@H]1NC(=O)[C@H]2CCCN2C(=O)[C@H](Cc2ccccc2)NC(=O)[C@H](Cc2ccccc2)CNC1=O | > 100 | > 100 µM | > 100 | > 100 µM | > 100 | > 100 µM | > 100 | > 100 µM | > 100 | > 100 µM | > 100 | > 100 µM | > 100 | > 100 µM | > 100 | > 100 µM | > 100 | > 100 µM | > 100 | > 100 µM
COc1ccc(N2C(=O)C3c4[nH]c5ccc(C)cc5c4C4CCC(C(C)(C)C)CC4C3C2=O)cc1 (centres undefined) | – | 33.4 µM | – | 33.3 µM | – | > 100 µM | – | > 100 µM | – | > 100 µM | – | 23.7 µM | – | 7.7 µM | – | – | – | 48.9 µM | – | > 100 µM
CC(C)c1ccc(C(=O)Nc2sc3c(c2C(N)=O)CCC(=O)C3)cc1 | 3.04 | 18.1 µM | 1.18 | 3.01 µM | 0.491 | 2.14 µM | 0.242 | 1.31 µM | 0.788 | 2.43 µM | 0.334 | 1.55 µM | 0.795 | 2.65 µM | 0.373 | 1.71 µM | 2.42 | 7.23 µM | 0.312 | 2.1 µM
Cc1cc(C)c(C(=O)CC(=O)c2cccnc2)c(C)c1 | 6.32 | > 100 µM | 14 | > 100 µM | 4.39 | > 100 µM | 8.73 | > 100 µM | 11.2 | > 100 µM | 1.34 | 5.52 µM | 26.6 | > 100 µM | 4.84 | > 100 µM | 7.34 | 86.8 µM | 10.2 | > 100 µM
CCC1(O)C(=O)OCc2c1cc1n(c2=O)Cc2cc3ccc(C=O)cc3nc2-1 (centres undefined) | 0.476 | 14.9 µM and 1.56 µM | 11.2 | 50 µM and > 100 µM | 5.11 | 20 µM and 50.7 µM | – | 50 µM and > 100 µM | 19.4 | 50 µM and 68.2 µM | 1.99 | 19.2 µM and 8.81 µM | – | 30.8 µM and 14.5 µM | 0.403 | 7.8 µM and 5.58 µM | 1.76 | 13.9 µM and 7.4 µM | 0.412 | 3.31 µM and 8.72 µM
COc1ccc(OC)c(/C=C/C(=O)N/N=C/c2ccc(Cl)cc2)c1 | 0.102 | > 70.9 µM | 0.372 | > 100 µM | 0.123 | > 79.3 µM | 0.105 | > 100 µM | 0.531 | > 100 µM | 0.0786 | > 100 µM | 0.0537 | 0.674 µM | 0.115 | > 100 µM | 0.909 | > 100 µM | 0.0786 | > 65.8 µM
CC(=O)OC1Oc2ccccc2-c2oc(=O)c(-c3cc4ccc(N(C)C)cc4oc3=O)cc21 (centres undefined) | 4.63 | 25.4 µM | 19.9 | 56.4 µM | 14.6 | 36.9 µM | 10.5 | 32.6 µM | 13 | 32.1 µM | 14.9 | > 100 µM | 9.9 | 25.4 µM | 10.4 | 23 µM | 11.2 | 28.3 µM | 4.34 | 30.1 µM
CCCCN=C(N)c1ccc(OCCSCCOc2ccc(C(N)=NCCCC)cc2)cc1 | 12.1 | > 100 µM | 20 | > 100 µM | 16.4 | > 100 µM | 4.4 | 98.6 µM | 16.9 | > 100 µM | > 100 | > 100 µM | 1.09 | 16.2 µM | 9.46 | > 100 µM | 65.4 | > 100 µM | 1.83 | 24.8 µM
Nc1ncc(-c2cnn(CCO)c2)c2scc(-c3ccc(NC(=O)Nc4cccc(F)c4)cc3)c12 | 0.418 | 2.71 µM | 0.465 | 3.56 µM | 0.285 | 2.61 µM | 0.288 | 3.28 µM | 1.14 | 2.91 µM | 0.32 | 2.2 µM | 0.271 | 1.74 µM | – | – | 0.162 | 5.15 µM | 1.32 | 5.93 µM
CCc1[nH]c(=O)nc(N)c1-c1ccc(N2CCCCC2)c([N+](=O)[O-])c1 | – | > 100 µM | – | > 100 µM | – | > 100 µM | – | > 100 µM | – | > 100 µM | – | > 100 µM | – | > 100 µM | – | > 100 µM | – | > 100 µM | – | > 100 µM
CN(C)c1ccc(N)cc1 | – | – | 7.81 | 22.3 µM | 4.04 | 23.8 µM | 3.53 | 21.8 µM | 3.99 | 55.2 µM | 5.6 | 30.9 µM | 3.79 | 17.3 µM | 3.94 | 14.7 µM | 12.4 | 48 µM | 3.25 | 9.7 µM
